Measured values published in patent publication EP0349941A2, “Morpholino derivatives of rhodomycins, process for their preparation and their use” (BEHRINGWERKE Aktiengesellschaft, priority 1988, dated 1990).
≈ marks a conversion by molar mass, not a printed value. Like-named read-outs stand apart in the source and are kept apart here. Values belong to the compound of their own block, whether it stands above or below them.

Key:
[1] = test system: L1210; test: Proliferation test (MTT reduction), L1210; format: cell-based, Maus; details: L1210 cells, 72 h incubation; for IC50: Mus musculus, read-out: IC₅₀ MTT-ASSAY L1210
Method: (§1) L1210, A 549 oder HT 29 in exponentieller Wachstumsphase wurden in einer Zelldichte von 5 x 10³ Zellen/ml in RPMI 1640 in einer 96 Well Mikrotiterplatte für 72 h mit unterschiedlichen Konzentrationen der Testsubstanz bei 37° C, 5 % CO₂ und 95 % relativer Luftfeuchte inkubiert. Kontrollexperimente erhielten anstelle der Testsubstanz lediglich Wachstumsmedium. Für jede Testsubstanz sowie für die Kontrolle wurden 4fach Bestimmungen angesetzt. Nach 65 h Inkubation wurden 50 µl einer MTT-Lösung (2,5 mg/ml in Phosphat-gepuffertem Kochsalz) zugegeben. In Gegenwart lebender Zellen wurde MTT zu einem dunkelroten unlöslichen Formazanfarbstoff reduziert. Diese Reaktion war nach 7 h (L1210 Zellen) bzw. nach 24 h (A 549, HT 29 Zellen) beendet und das überstehende Medium wird sorgfältig abgesaugt. Der unlösliche Farbstoff wurde durch Zugabe von 100 µl DMSO aufgelöst und die Extinktion der so entstehenden Lösung anschließend für jedes Well in einem Multiscan Photometer 340 CC der Fa. Flow bei einer Wellenlänge von 492 nm vermessen.
(§2) Aus dem Verhältnis der Extinktionen behandelter und unbehandelter Zellen ergab sich eine Dosis-Wirkungskurve, aus der die Konzentration, die gerade 50 % der Zellen (IC₅₀) abtötet, abgelesen werden konnte. Für wiederholte Untersuchungen betrug der Variationskoeffizient weniger als 15 %.

[2] = test system: HT 29; test: Proliferation test (MTT reduction), HT 29; format: cell-based, menschlichen; details: HT 29 cells, 72 h incubation; for IC50: Homo sapiens, read-out: IC₅₀ MTT-ASSAY HT 29
Method: as §1, §2

[3] = test system: A 549; test: Proliferation test (MTT reduction), A 549; format: cell-based, menschlichen; details: A 549 cells, 72 h incubation; for IC50: Homo sapiens, A549, read-out: IC₅₀ MTT-ASSAY A 549
Method: as §1, §2

[4] = test system: L1210 Leukämiezellen; test: Cytotoxicity against L1210 leukaemia cells (stem cell assay, colony formation in soft agar); format: cell-based, Maus; details: colonies counted after 5-7 days; for IC50: Mus musculus, L1210
Method: Der Test wurde entsprechend der von Hamburger und Salmon beschriebenen Methodik mit den unten beschriebenen Modifikationen durchgeführt.
Konditioniertes Medium wurde durch McCoy 5A Medium ersetzt. Als Folge der hohen Klonierungsrate der L1210 Leukämiezellen in Soft Agar wurde die Anzahl an Tumorzellen pro Platte auf 5 x 10² reduziert.
Die Zellen wurden mit unterschiedlichen Konzentrationen der Testsubstanz für 1 h bei 37° C inkubiert. Anschlie-ßend wurden die Zellen zweimal mit McCoy 5A Medium gewaschen und anschließend in einem Zwei-Schichten-Agar System als obere Schicht entsprechend der Methode von Hamburger und Salmon ausplattiert.
Zusätzliche Parallelexperimente wurden unter Verwendung einer kontinuierlichen Inkubationszeit durchgeführt, wobei unterschiedliche Konzentrationen der Testsubstanz der oberen Agarschicht vor Ausplattieren der Zellen zugemischt wurden.
Die Platten wurden in einem Brutschrank mit 5 % CO₂, 20 % O₂ und 95 % relativer Luftfeuchte für 5-7 Tage inkubiert. Nach dieser Zeit wurden Kolonien mit einem Durchmesser von 60 µm mit Hilfe eines Invertoskopes gezählt.
Die Ergebnisse wurden angegeben als prozentualer Anteil der Kolonien in behandelten versus unbehandelten Gruppen. Der Variationskoeffizient bei wiederholten Experimenten war kleiner als 15 %.
Die an den getesteten Verbindungen erhaltenen Resultate sind in der Tabelle 1 enthalten. Aus der Dosis-Wirkungskurve wurde die IC₅₀ für die kontinuierliche und einstündige Inkubation bestimmt (Tab. 1).

[5] = test system: L1210 Leukämie der Maus; test: In vivo efficacy against L1210 leukaemia of the mouse; details: L1210 tumour model in vivo
Method: Ascitesflüssigkeit wurde unter sterilen Bedingungen DBA2 Mäusen (weiblich, 18 - 20 g) 7 Tage nach Implantation entnommen. Der Ascites wurde dreimal mit PBS gewaschen, gezählt und auf eine Zellzahl von 10⁶ in 0.2 ml PBS eingestellt. 10⁶ Zellen, suspendiert in 0.2 ml PBS, wurden anschlie-ßend DBF1 Mäusen (weiblich, 18 - 20 g) intraperitoneal injiziert. 6 Tiere pro Gruppe wurden für jede Substanzkonzentration bzw. als Kontrolle eingesetzt.
Zur Ermittlung der antitumoralen Wirksamkeit wurden die Tiere am Tag 1 und 5 nach Injektion der Testsubstanz gewogen. Gewichtsverlust von mehr als 20 % am Tag 5 wurde als Indikator einer toxischen Substanzwirkung angesehen.
Am Ende des Experimentes (Tod aller Tiere oder überlebende Tiere am Tag 60) wurde die mittlere Überlebenszeit der Tiere in den jeweiligen Gruppen bestimmt, sofern am Tag 5 des Experimentes mindestens 65 % der Tiere noch gelebt hatten. Die mittlere Überlebenszeit wurde ausschließlich für im Verlaufe des Experimentes sterbende Tiere bestimmt. Langzeitüberlebende (LTS) wurden bei dieser Berechnung nicht berücksichtigt und gesondert aufgeführt.
Aus der mittleren Überlebenszeit (MSTr) der behandelten Gruppen sowie der Kontrollgruppen (MSTc) wurde die antitumorale Wirksamkeit (T/C) für die jeweilige Substanzkonzentration in Prozent der unbehandelten Kontrolle entsprechend der folgenden Formel bestimmt: [formula] […]

[6] = 1 h incubation at 37° C, read-out: IC₅₀ STEM CELL ASSAY 1 h exp. L1210
[7] = continuous incubation, read-out: IC₅₀ STEM CELL ASSAY cont. exp. L1210

Compound: 7-0-(3′-(3˝ oder 5˝-Cyano-6˝(S)-hydroxymethyl-2˝(S)-methoxy-4˝-morpholinyl)-2′,3′,6′-tri-desoxy-alpha-L-lyxohexopyranosyl)-epsilon-isorhodomycinon [XXIII]
- IC₅₀ MTT-ASSAY L1210 [1]: 0.0009 µg/mL
- IC₅₀ MTT-ASSAY HT 29 [2]: 0.0031 µg/mL
- IC₅₀ MTT-ASSAY A 549 [3]: 0.0021 µg/mL
- IC₅₀ STEM CELL ASSAY 1 h exp. L1210 ([4]; 1 h incubation at 37° C): 0.027 µg/mL

Compound: 7-0-(3′-(3˝- oder 5˝-Cyano-6˝(S)-hydroxymethyl-2˝(S)methoxy-4˝-morpholinyl)-2′,3′,6′-tri-desoxy-alpha-L-lyxohexopyranosyl)-ß-rhodomycinon [XXV]
- IC₅₀ MTT-ASSAY L1210 [1]: 0.0005 µg/mL
- IC₅₀ MTT-ASSAY HT 29 [2]: 0.002 µg/mL
- IC₅₀ MTT-ASSAY A 549 [3]: 0.003 µg/mL
- IC₅₀ STEM CELL ASSAY 1 h exp. L1210 ([4]; 1 h incubation at 37° C): 0.007 µg/mL

Compound: 7-0-(3′-(3˝-oder 5˝-Cyano-6˝(S)-hydroxymethyl-2˝(S)-methoxy-4˝-morpholinyl)-2′,3′,6′-tri-desoxy-alpha-L-arabinohexopyranosyl)-epsilon-isorhodomycinon [XXIV]
- IC₅₀ MTT-ASSAY L1210 [1]: 0.0071 µg/mL
- IC₅₀ MTT-ASSAY HT 29 [2]: 0.017 µg/mL
- IC₅₀ MTT-ASSAY A 549 [3]: 0.011 µg/mL
- IC₅₀ STEM CELL ASSAY 1 h exp. L1210 ([4]; 1 h incubation at 37° C): 0.034 µg/mL

Compound: CC[C@@]1(O)C[C@H](O[C@H]2C[C@H](N3C[C@@H](CO)O[C@@H](OC)C3)[C@H](O)[C@H](C)O2)c2c(O)c3c(c(O)c2[C@H]1C(=O)OC)C(=O)c1c(O)ccc(O)c1C3=O [IX, 7-0-(3′-(6˝(S)-Hydroxymethyl-2˝(R)-methoxy-4˝-morpholinyl)-2′,3′,6′-tri-desoxy-alpha-L-lyxohexopyranosyl)-epsilon-isorhodomycinon]
- IC50 [4, 6]: 1 µg/mL (≈ 1.42 µM)
- IC50 [4, 7]: 0.12 µg/mL (≈ 0.171 µM)

Compound: CC[C@@]1(O)C[C@H](O[C@H]2C[C@H](N3C[C@@H](CO)O[C@H](OC)C3)[C@H](O)[C@H](C)O2)c2c(O)c3c(c(O)c2[C@H]1C(=O)OC)C(=O)c1c(O)ccc(O)c1C3=O [VIII, 7-0-(3′-(6˝(s)-Hydroxymethyl-2˝(s)-methoxy-4˝-morpholinyl)-2′,3′,6′-tri-desoxy-alpha-L-lyxohexopyranosyl)-epsilon-isorhodomycinon]
- IC50 [1]: 0.009 µg/mL (≈ 0.0128 µM)
- IC50 [2]: 0.035 µg/mL (≈ 0.0497 µM)
- IC50 [3]: 0.038 µg/mL (≈ 0.054 µM)
- IC50 [4, 6]: 0.95 µg/mL (≈ 1.35 µM)
- IC50 [4, 7]: 0.029 µg/mL (≈ 0.0412 µM)
- Wirkung in dem L1210 Tumormodell in vivo [5]: kurativ wirksam

Compound: CCC1(O)CC(O[C@H]2C[C@H](N3CCOCC3)[C@H](O)[C@H](C)O2)c2c(O)c3c(c(O)c2C1C(=O)OC)C(=O)c1c(O)ccc(O)c1C3=O (stereo partly drawn) [Verbindung 26, 7-0-(3′-(4˝-Morpholinyl)-2′,3′,6′-tridesoxy-alpha-L-lyxohexopyranosyl)-epsilon-isorhodomycinon]
- Wirkung in dem L1210 Tumormodell in vivo [5]: nur eine marginale Wirkung

Compound: CC[C@@]1(O)C[C@H](O[C@H]2C[C@H](N3C[C@@H](CO)O[C@@H](n4cnc5c(N)ncnc54)C3)[C@H](O)[C@H](C)O2)c2c(O)c3c(c(O)c2[C@H]1C(=O)OC)C(=O)c1c(O)ccc(O)c1C3=O [XIV]
- IC50 [4, 6]: 0.5 µg/mL (≈ 0.62 µM)
- IC50 [4, 7]: 1 µg/mL (≈ 1.24 µM)

Compound: CC[C@@]1(O)C[C@H](O[C@H]2C[C@H](N3C[C@@H](OC)O[C@@H](C)C3)[C@H](O)[C@H](C)O2)c2c(O)c3c(c(O)c2[C@H]1O)C(=O)c1cccc(O)c1C3=O [XIX, 7-0-(3′-(6˝(S)-methyl-2˝(S)-methoxy-4˝-morpholinyl)-2′, 3′,6′-tridesoxy-alpha-L-lyxohexopyranosyl)-ß-rhodomycinon]
- IC50 [4, 6]: 0.095 µg/mL (≈ 0.151 µM)
- IC50 [4, 7]: 0.021 µg/mL (≈ 0.0334 µM)

Compound: CC[C@@]1(O)C[C@H](O[C@H]2C[C@H](N3C[C@@H](CO)O[C@H](OC)C3)[C@@H](O)[C@H](C)O2)c2c(O)c3c(c(O)c2[C@H]1C(=O)OC)C(=O)c1c(O)ccc(O)c1C3=O [XV, 7-0-(3′-(6˝(S)-Hydroxymethyl-2˝(S)-methoxy-4˝-morpholinyl)-2′,3′,6′-tri-desoxy-alpha-L-arabinohexopyranosyl)epsilon-isorhodomycinon]
- IC50 [1]: 0.035 µg/mL (≈ 0.0497 µM)
- IC50 [2]: 0.03 µg/mL (≈ 0.0426 µM)
- IC50 [3]: 0.038 µg/mL (≈ 0.054 µM)
- IC50 [4, 6]: 0.32 µg/mL (≈ 0.455 µM)
- IC50 [4, 7]: 0.078 µg/mL (≈ 0.111 µM)

Compound: CC[C@@]1(O)C[C@H](O[C@H]2C[C@H](N3C[C@@H](CO)O[C@H](OC)C3)[C@H](O)[C@H](C)O2)c2c(O)c3c(c(O)c2[C@H]1O)C(=O)c1cccc(O)c1C3=O [XVI, 7-0-(3′-(6˝(S)-Hydroxymethyl-2˝(S)-methoxy-4˝-morpholinyl)-2′,3′,6′-tri-desoxy-alpha-L-lyxohexopyranosyl)-ß-rhodomycinon]
- IC50 [1]: 0.036 µg/mL (≈ 0.0558 µM)
- IC50 [2]: 0.11 µg/mL (≈ 0.17 µM)
- IC50 [3]: 0.046 µg/mL (≈ 0.0712 µM)
- IC50 [4, 6]: 0.15 µg/mL (≈ 0.232 µM)
- IC50 [4, 7]: 0.026 µg/mL (≈ 0.0403 µM)

Compound: CC[C@@]1(O)C[C@H](O[C@H]2C[C@H](N3C[C@@H](CO)O[C@@H](OC)C3)[C@H](O)[C@H](C)O2)c2c(O)c3c(c(O)c2[C@H]1O)C(=O)c1cccc(O)c1C3=O [XVII, 7-0-(3′-(6˝(S)-Hydroxymethyl-2˝(R)-methoxy-4˝-morpholinyl)-2′,3′,6′-tri-desoxy-alpha-L-lyxohexopyranosyl)-ß-rhodomycinon]
- IC50 [4, 6]: 1 µg/mL (≈ 1.55 µM)
- IC50 [4, 7]: 0.55 µg/mL (≈ 0.852 µM)

- IC50 [1]: 0.008 µg/mL (≈ 0.013 µM)
Compound: CC[C@@]1(O)C[C@H](O[C@H]2C[C@H](N3C[C@H]4CO[C@@H](C3)O4)[C@H](O)[C@H](C)O2)c2c(O)c3c(c(O)c2[C@H]1O)C(=O)c1cccc(O)c1C3=O [XX, 7-0-(3′-(2˝,6˝-Epoximethano-4˝-morpholinyl)-2′,3′,6′-tridesoxy-alpha-L-lyxohexopyranosyl)-ß-rhodomycinon]
- IC50 [2]: 0.036 µg/mL (≈ 0.0587 µM)
- IC50 [3]: 0.014 µg/mL (≈ 0.0228 µM)
- IC50 [4, 6]: 0.12 µg/mL (≈ 0.196 µM)
